In experiment [1] the target is T1, Opioid receptors; mu/kappa/delta (Homo sapiens) (UniProt P41145+P41143+P35372). Nature of the experiment: The IC50 value of agonist (DADLE) in presence of antagonist (Compound 20 nM) divided by the control […] value with no antagonist in MVD (mouse vas deferens). Format: functional. The settings on record: Cavia porcellus.
Experiment [2] deals with T1, Opioid receptors; mu/kappa/delta (Homo sapiens). Briefly: The IC50 value of agonist (ethylketazocine) in presence of antagonist (Compound 20 nM) divided by the control […] value with no antagonist in GPI (Guinea pig ileum). The following applies: Cavia porcellus, target entry is the homologue from another species. It counts as functional, tissue-based.
Experiment [3] shares this target. Briefly: The IC50 value of agonist (morphine) in presence of antagonist (Compound 20 nM) divided by the control […] value with no antagonist in GPI (Guinea pig ileum). Format: functional, tissue-based. The following applies: Cavia porcellus, target entry is the homologue from another species.

T1 sequence (P35372 whole entry, looked up): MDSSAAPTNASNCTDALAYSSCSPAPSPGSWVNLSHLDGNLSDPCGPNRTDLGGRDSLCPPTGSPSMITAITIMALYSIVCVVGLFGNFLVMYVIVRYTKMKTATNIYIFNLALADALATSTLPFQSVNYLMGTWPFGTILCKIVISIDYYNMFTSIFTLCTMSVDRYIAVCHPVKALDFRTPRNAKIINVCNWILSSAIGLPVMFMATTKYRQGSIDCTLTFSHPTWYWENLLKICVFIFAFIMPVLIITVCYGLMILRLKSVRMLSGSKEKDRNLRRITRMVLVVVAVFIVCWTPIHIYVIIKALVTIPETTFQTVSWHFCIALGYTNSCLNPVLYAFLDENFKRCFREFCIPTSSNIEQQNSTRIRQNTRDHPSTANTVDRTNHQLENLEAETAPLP
T1 sequence (P41143 whole entry, looked up): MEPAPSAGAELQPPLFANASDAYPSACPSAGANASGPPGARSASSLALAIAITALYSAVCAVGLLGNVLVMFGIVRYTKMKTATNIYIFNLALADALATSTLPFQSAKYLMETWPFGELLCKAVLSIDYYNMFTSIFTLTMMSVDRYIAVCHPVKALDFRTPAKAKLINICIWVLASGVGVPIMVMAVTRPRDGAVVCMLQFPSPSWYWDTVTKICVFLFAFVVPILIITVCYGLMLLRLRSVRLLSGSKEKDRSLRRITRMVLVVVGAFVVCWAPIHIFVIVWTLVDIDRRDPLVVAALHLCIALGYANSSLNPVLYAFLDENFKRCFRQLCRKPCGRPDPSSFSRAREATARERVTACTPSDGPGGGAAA
T1 sequence (P41145 whole entry, looked up): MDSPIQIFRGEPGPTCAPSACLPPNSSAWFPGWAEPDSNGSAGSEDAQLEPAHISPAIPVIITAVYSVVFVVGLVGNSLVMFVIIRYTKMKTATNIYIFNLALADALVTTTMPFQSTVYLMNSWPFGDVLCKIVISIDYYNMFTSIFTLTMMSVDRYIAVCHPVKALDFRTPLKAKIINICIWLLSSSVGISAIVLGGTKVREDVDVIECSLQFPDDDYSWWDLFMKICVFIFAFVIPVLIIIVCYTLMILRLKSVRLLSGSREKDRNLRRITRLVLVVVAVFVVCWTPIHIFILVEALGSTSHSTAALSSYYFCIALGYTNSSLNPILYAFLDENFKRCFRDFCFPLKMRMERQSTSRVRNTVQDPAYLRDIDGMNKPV

On to `Cn1c2c(c3c1[C@@H]1Oc4c(O)ccc5c4[C@@]14CCN(CC1CC1)[C@H](C5)C4(O)C3)CC1(O)[C@H]3Cc4ccc(O)c5c4[C@@]1(CCN3CC1CC1)[C@H]2O5` (stereo partly specified), for which the Ratio in experiment [1] is 4.5; in experiment [2], 128; in experiment [3], 5.4.

Consider `Oc1ccc2c3c1O[C@@H]1c4[nH]c5c(c4CC4(O)[C@@H](C2)N(CC2CC2)CC[C@]314)CC1(O)[C@H]2Cc3ccc(O)c4c3[C@]1(CCN2CC1CC1)[C@H]5O4` (stereo partly specified), for which the Ratio in experiment [1] was 2; in experiment [2] it was 50.4; in experiment [3], 1.6.
